Test results from patent US20100130408A1, “USE OF MODIFIED CYCLOSPORINS” (priority 2006, published 2010).

What was measured:
[1] = test system: HSCs; test: Type 1 collagen assay (ELISA of culture media); format: cell-based; conditions: rat HSCs
Description: (§1) A. In vitro Cell culture: HSCs are isolated from the liver of male Wistar rats by sequential in situ perfusion with collagenase and digestion with pronase, followed by centrifugation in a double-layered (17%/11.5%) metrizamide solution (Sigma. Chemical, St. Louis, Mo.), as described in Kato, et al, J. Hepatol (1999) 31:91-99. HSCs are cultured in Dulbecco's modified Eagle's medium (DMEM) with 10% fetal calf serum (FCS). Experiments are performed on cells between the third and fourth serial passages. To measure […] matrix metalloproteinase (MMP-1) and tissue inhibitor of matrix metalloproteinase (TIMP-1), TWNT-4 cells which is a human cell line derived from HSCs as produced according to Shibata, et al, Cell Transplant (2003) 12:499-507 is used for evaluating the effects of Fasudil on MMP-1 and TIMP-1. TWNT-4 cells are cultured in DMEM with 10% FCS as reported previously (Id). NIM811 (Novartis Pharma AG, Basel, Switzerland) is dissolved in DMEM and added to cultures. Cell viability of HSCs is more than 90% under serum-free conditions for 24 h in the presence of 2 μM NIM811.
Type 1 collagen assay: Cultured HSCs are incubated in serum-free medium in the presence or absence of NIM811 for 24 h. Type I collagen is determined in culture media by ELISA as described in Iwamoto, et al, J. Hepatol (2000) 32:762-770. […]

[2] = test system: HSCs; test: BrdU incorporation (cell proliferation ELISA); format: cell-based, rat
Description: as §1, with “Cell viability of HSCs is more than 90% under serum-free conditions for 24 h in the presence of 2 μM NIM811.” left out
Analysis of BrdU incorporation: HSC incorporation of BrdU is measured using a cell proliferation ELISA (Roche Diagnostics GmbH, Mannheim, Germany) as described in Higashi, et al, J. Lab Clin Med (2005) 145(6):316-322. […] BrdU incorporation is estimated by measuring the […].

[3] = test system: cultured mouse hepatocytes; conditions: Kon et al, Hepatology (2004); cited from earlier work
[4] = test system: HSCs; test: Analysis of apoptosis (TUNEL); format: cell-based, rat; conditions: 2 μM
Description: as §1, with “Cell viability of HSCs is more than 90% under serum-free conditions for 24 h in the presence of 2 μM NIM811.” left out
Analysis of Apoptosis: HSCs are maintained in either the presence or absence of NIM811 in serum-free conditions for 24 h. […] Cells are then stained with Hoechst 33342, and analyzed by the TUNEL method using an In Situ Cell Death Detection Kit (Roche) according to the manufacturer's instructions. […] At least 100 cells from three independent experiments and from three different cell preparations are counted for each condition.

[5] = biological target: cyclophilin A (Homo sapiens, UniProt P62937); conditions: Waldmeier et al, Mol Pharmacol (2002); cited from earlier work
cyclophilin A, sequence (P62937 whole entry, species assumed): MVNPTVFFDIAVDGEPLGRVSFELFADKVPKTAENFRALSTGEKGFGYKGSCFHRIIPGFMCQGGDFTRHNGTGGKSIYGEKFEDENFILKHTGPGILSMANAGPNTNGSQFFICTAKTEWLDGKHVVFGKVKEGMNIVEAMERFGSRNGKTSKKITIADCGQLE

[6] = test system: TGFβ Signaling Pathways; test: Western blot analysis for phospho- and nonphospho-Smad2 and Smad3; format: cell-based, human; conditions: 0.5 μM
Description: Western blot analysis for phospho- and nonphospho-Smad2 and Smad3: Western blot analysis is performed as described above for MAPK analysis and probed with a primary antibody for Smad2, phospho-Smad2 (Thr/Tyr), Smad3, or phospho-Smad3 (Thr/Tyr) (Cell Signaling Technology, Danvers, Mass.). For comparison, the ratios of phosphorylated Smad2 and Smad3 to nonphosphorylated Smad2 and Smad3, respectively, are calculated from densitometric data.

Compound: C/C=C/C[C@@H](C)[C@@H](O)[C@H]1C(=O)N[C@@H](CC)C(=O)N(C)CC(=O)N(C)[C@@H]([C@@H](C)CC)C(=O)N[C@@H](C(C)C)C(=O)N(C)[C@@H](CC(C)C)C(=O)N[C@@H](C)C(=O)N[C@H](C)C(=O)N(C)[C@@H](CC(C)C)C(=O)N(C)[C@@H](CC(C)C)C(=O)N(C)[C@@H](C(C)C)C(=O)N1C [NIM811]
- reduction of collagen accumulation ([1]; 0.5 μM): approximately 50%
- suppression of collagen accumulation ([1]; increasing concentrations, 24 h): concentration-dependent suppression of collagen accumulation
- cell growth of HSCs [2]: suppresses cell growth of HSCs in a concentration-dependent manner
- decrease of new DNA synthesis (BrdU incorporation) ([2]; 2.0 μM): ~30%
- acetaminophen-induced necrosis and apoptosis [3]: prevented acetaminophen-induced necrosis and apoptosis
- apoptosis [4]: no apoptosis is observed
- binding to cyclophilin A [5]: does not bind to cyclophilin A
- suppression of phosphorylation of Smad2 [6]: ~70%
- suppression of phosphorylation of Smad3 [6]: ~60%
